The numbers were not newly measured in PMC4761099 (British Journal of Pharmacology, 2016), which cites them from elsewhere.

This data set deals with Ob/ob mice. As to conditions: leptin mutant mice, acute setting; ref Kerr et al., 2011.

For the substance “GIP(8-42): literature GIP fragment (Kerr et al., 2011) (SDYSIAMDKIHQQDFVNWLLAQKGKKNDWKHNITQ; Gastric inhibitory polypeptide; UniProt P09681 59-93, looked up, fragment)”, the “antagonism of GIP(1–42) in vivo, in words” value was “decreased insulin secretion and increased plasma glucose”.
